# Laboratory results from PubChem BioAssay AID2060902 (Molecular Pharmacology Branch, DTP, NCI, 2025).
# System: 485368-065-R3-J5-PDC spheroids with HUVEC/MSC, viability
# Test: Anticancer human tumor 485368-065-R3-J5-PDC patient-derived pancreatic carcinoma cell line growth inhibition [RAS]
# Details: for IC50: curve of first compound; for viability, T/C: stronger effect = lower value
# Summary of the method: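 Multi-cell-type spheroids: tumor cells plus HUVEC endothelial cells and mesenchymal stem cells. RAS-pathway inhibitors were combined with targeted agents, each dosed in half-log steps down from clinical Cmax, or from 10 microM when Cmax was unknown.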
# [1] = second compound 0.00316 µM, first compound 0.0316 µM
# [2] = second compound 0.00316 µM, first compound 0.1 µM
# [3] = second compound 0.00316 µM, first compound 0.316 µM
# [4] = second compound 0.00316 µM, first compound 1 µM
# [5] = second compound 0.01 µM, first compound 0.0316 µM
# [6] = second compound 0.01 µM, first compound 0.1 µM
# [7] = second compound 0.01 µM, first compound 0.316 µM
# [8] = second compound 0.01 µM, first compound 1 µM
# [9] = second compound 0.0316 µM, first compound 0.0316 µM
# [10] = second compound 0.0316 µM, first compound 0.1 µM
# [11] = second compound 0.0316 µM, first compound 0.316 µM
# [12] = second compound 0.0316 µM, first compound 1 µM
# [13] = second compound 0.1 µM, first compound 0.0316 µM
# [14] = second compound 0.1 µM, first compound 0.1 µM
# [15] = second compound 0.1 µM, first compound 0.316 µM
# [16] = second compound 0.1 µM, first compound 1 µM
# [17] = second compound 0.316 µM, first compound 0.0316 µM
# [18] = second compound 0.316 µM, first compound 0.1 µM
# [19] = second compound 0.316 µM, first compound 0.316 µM
# [20] = second compound 0.316 µM, first compound 1 µM
# [21] = second compound 1 µM, first compound 0.0316 µM
# [22] = second compound 1 µM, first compound 0.1 µM
# [23] = second compound 1 µM, first compound 0.316 µM
# [24] = second compound 1 µM, first compound 1 µM
# 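Further: spheroids exposed to agents for seven days before readout.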
smiles,measurement,setting,value
CC(Nc1ccc2c(c1)OCCn1cc(N3C(=O)OCC3C(F)F)nc1-2)C(N)=O (centres undefined) + C=CC(=O)N1CCN(c2nc(OCC3CCCN3C)nc3c(F)c(-c4nc(N)cc(C)c4C(F)(F)F)c(Cl)cc23)C(C)C1,IC50,second compound 0.00316 µM,> 10000 nM
same,IC50,second compound 0.01 µM,> 10000 nM
same,IC50,second compound 0.0316 µM,> 10000 nM
same,IC50,second compound 0.1 µM,9800 nM
same,IC50,second compound 0.316 µM,> 10000 nM
same,IC50,second compound 1 µM,4990 nM
same,"viability, T/C",[1],103%
same,"viability, T/C",[2],79.8%
same,"viability, T/C",[3],88.5%
same,"viability, T/C",[4],75.4%
same,"viability, T/C","second compound 0.00316 µM, first compound 3.16 µM",75.6%
same,"viability, T/C","second compound 0.00316 µM, first compound 10 µM",51.3%
same,"viability, T/C",[5],92.4%
same,"viability, T/C",[6],86.9%
same,"viability, T/C",[7],91.8%
same,"viability, T/C",[8],72.8%
same,"viability, T/C","second compound 0.01 µM, first compound 3.16 µM",76.5%
same,"viability, T/C","second compound 0.01 µM, first compound 10 µM",49.5%
same,"viability, T/C",[9],87.1%
same,"viability, T/C",[10],72.3%
same,"viability, T/C",[11],88%
same,"viability, T/C",[12],85.7%
same,"viability, T/C","second compound 0.0316 µM, first compound 3.16 µM",76.4%
same,"viability, T/C","second compound 0.0316 µM, first compound 10 µM",52.1%
same,"viability, T/C",[13],100%
same,"viability, T/C",[14],97.6%
same,"viability, T/C",[15],102%
same,"viability, T/C",[16],82%
same,"viability, T/C","second compound 0.1 µM, first compound 3.16 µM",73.8%
same,"viability, T/C","second compound 0.1 µM, first compound 10 µM",49.3%
same,"viability, T/C",[17],98.5%
same,"viability, T/C",[18],87.1%
same,"viability, T/C",[19],78.4%
same,"viability, T/C",[20],70.5%
same,"viability, T/C","second compound 0.316 µM, first compound 3.16 µM",82.8%
same,"viability, T/C","second compound 0.316 µM, first compound 10 µM",57.1%
same,"viability, T/C",[21],101%
same,"viability, T/C",[22],90.5%
same,"viability, T/C",[23],87.5%
same,"viability, T/C",[24],84.7%
same,"viability, T/C","second compound 1 µM, first compound 3.16 µM",55%
same,"viability, T/C","second compound 1 µM, first compound 10 µM",41.3%
O=C(c1ccc(F)c(F)c1Nc1ccc(I)cc1F)N1CC(O)([C@@H]2CCCCN2)C1 + C=CC(=O)N1CCN(c2nc(OCC3CCCN3C)nc3c(F)c(-c4nc(N)cc(C)c4C(F)(F)F)c(Cl)cc23)C(C)C1,IC50,second compound 0.00316 µM,28.6 nM
same,IC50,second compound 0.01 µM,27.8 nM
same,IC50,second compound 0.0316 µM,31.1 nM
same,IC50,second compound 0.1 µM,29.1 nM
same,IC50,second compound 0.316 µM,34.4 nM
same,IC50,second compound 1 µM,49.6 nM
same,"viability, T/C","second compound 0.00316 µM, first compound 0.00316 µM",106%
same,"viability, T/C","second compound 0.00316 µM, first compound 0.01 µM",60.2%
same,"viability, T/C",[1],56.9%
same,"viability, T/C",[2],30.1%
same,"viability, T/C",[3],24.3%
same,"viability, T/C",[4],8.78%
same,"viability, T/C","second compound 0.01 µM, first compound 0.00316 µM",99.8%
same,"viability, T/C","second compound 0.01 µM, first compound 0.01 µM",71.6%
same,"viability, T/C",[5],44.8%
same,"viability, T/C",[6],29.5%
same,"viability, T/C",[7],26.1%
same,"viability, T/C",[8],8.23%
same,"viability, T/C","second compound 0.0316 µM, first compound 0.00316 µM",90.9%
same,"viability, T/C","second compound 0.0316 µM, first compound 0.01 µM",73.1%
same,"viability, T/C",[9],47.8%
same,"viability, T/C",[10],29.8%
same,"viability, T/C",[11],23.1%
same,"viability, T/C",[12],7.64%
same,"viability, T/C","second compound 0.1 µM, first compound 0.00316 µM",86%
same,"viability, T/C","second compound 0.1 µM, first compound 0.01 µM",72.3%
same,"viability, T/C",[13],44.6%
same,"viability, T/C",[14],30.4%
same,"viability, T/C",[15],25.3%
same,"viability, T/C",[16],8.95%
same,"viability, T/C","second compound 0.316 µM, first compound 0.00316 µM",85.8%
same,"viability, T/C","second compound 0.316 µM, first compound 0.01 µM",68.6%
same,"viability, T/C",[17],50.5%
same,"viability, T/C",[18],33.1%
same,"viability, T/C",[19],26.8%
same,"viability, T/C",[20],8.9%
same,"viability, T/C","second compound 1 µM, first compound 0.00316 µM",91.6%
same,"viability, T/C","second compound 1 µM, first compound 0.01 µM",65.5%
same,"viability, T/C",[21],52.7%
same,"viability, T/C",[22],47.3%
same,"viability, T/C",[23],27.6%
same,"viability, T/C",[24],11.4%
